Drawing on US20240228482A1, “COMPOUNDS, COMPOSITIONS AND METHODS OF TREATING CANCER” (HOTSPOT THERAPEUTICS, INC., priority 2021, published 2024), this text covers IC50 for 45 compounds.

Structures are written as SMILES. pIC50: −log10 of the molar value.

This test deals with T1, CBL-B (Homo sapiens, UniProt Q13191).
T1 construct: GST
The test can be described thus: CBL-B TR-FRET IC50 screening (E1/E2 ubiquitination, Biotin-Ubiquitin, Anti GST-Tb donor / Streptavidin-d2 acceptor). The format is biochemical. The note with it: second part of Table 2 (head 'Patent Cmpd No / Updated Activity'); same CBL-B TR-FRET IC50 bins A-F; read-out: Updated Activity.

T1 sequence (Q13191 whole entry): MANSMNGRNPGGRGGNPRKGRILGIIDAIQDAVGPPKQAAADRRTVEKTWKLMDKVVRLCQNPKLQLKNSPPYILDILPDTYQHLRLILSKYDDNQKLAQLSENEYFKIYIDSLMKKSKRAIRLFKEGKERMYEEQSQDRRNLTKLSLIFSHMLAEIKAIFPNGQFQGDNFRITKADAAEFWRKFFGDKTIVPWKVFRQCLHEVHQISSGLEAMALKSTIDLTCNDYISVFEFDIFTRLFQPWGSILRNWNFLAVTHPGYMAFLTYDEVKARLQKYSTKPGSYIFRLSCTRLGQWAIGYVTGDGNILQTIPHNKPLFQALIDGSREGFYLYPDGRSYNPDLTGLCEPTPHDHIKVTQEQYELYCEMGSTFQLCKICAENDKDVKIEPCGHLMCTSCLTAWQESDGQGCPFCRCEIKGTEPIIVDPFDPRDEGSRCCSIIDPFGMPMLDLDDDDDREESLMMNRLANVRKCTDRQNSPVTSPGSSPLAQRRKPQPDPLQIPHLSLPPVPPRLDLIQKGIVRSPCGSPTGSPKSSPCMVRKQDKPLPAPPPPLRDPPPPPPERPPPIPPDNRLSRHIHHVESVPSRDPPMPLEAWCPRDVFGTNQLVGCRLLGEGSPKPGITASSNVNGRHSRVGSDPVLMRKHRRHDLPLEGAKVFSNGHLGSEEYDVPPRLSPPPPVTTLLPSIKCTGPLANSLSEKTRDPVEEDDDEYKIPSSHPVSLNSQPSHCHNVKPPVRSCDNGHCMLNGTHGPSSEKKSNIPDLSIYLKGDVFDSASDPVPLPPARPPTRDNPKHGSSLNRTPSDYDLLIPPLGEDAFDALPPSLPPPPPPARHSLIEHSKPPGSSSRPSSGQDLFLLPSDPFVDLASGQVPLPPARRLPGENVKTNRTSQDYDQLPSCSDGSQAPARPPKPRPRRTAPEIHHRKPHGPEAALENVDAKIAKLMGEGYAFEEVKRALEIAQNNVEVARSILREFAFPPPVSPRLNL

Take `CC(=O)N(C)Cc1cc([C@@H](c2nncn2C)C2CCC2)cc(-n2cc3c(C(F)(F)F)cccn3c2=O)c1` (single isomer, unassigned) [Compound 512]: the pIC50 is less than 5.00.
Under `CC(=O)N(C)Cc1cc([C@H](c2nncn2C)C2CCC2)cc(-n2cc3c(C(F)(F)F)cccn3c2=O)c1` (single isomer, unassigned) [Compound 513] stands less than 5.00; under `Cn1cnnc1[C@H](c1cc(F)cc(-n2cc3c(C(F)(F)F)cc(CN4CCC5(CC5)C4)cn3c2=O)c1)C1CCC1` (single isomer, unassigned) [Compound 514], greater than 7.00.
As for `C[C@@H]1CN(Cc2cc(C(F)(F)F)c3cn(-c4cc(F)cc([C@@H](c5nncn5C)C5CCC5)c4)c(=O)n3c2)CCO1` (single isomer, unassigned) [Compound 515], the pIC50 was less than 5.00.
For the compound `Cn1cnnc1[C@H](c1cc(C#N)cc(-n2cc3c(C(F)(F)F)cc(CN4CCC(C)(F)CC4)cn3c2=O)c1)C1CCC1` (single isomer, unassigned) [Compound 516], the pIC50 is less than 5.00.
Regarding `C[C@@H]1CN(Cc2cc(C(F)(F)F)c3cn(-c4cc(C#N)cc([C@@H](c5nncn5C)C5CCC5)c4)c(=O)n3c2)CCO1` (single isomer, unassigned) [Compound 517], the pIC50 is less than 5.00.
For the compound `COCCO[C@H]1CCCN(Cc2cc(C(F)(F)F)c3cn(-c4cccc([C@H](c5nncn5C)C5CCC5)c4)c(=O)n3c2)C1` (single isomer, unassigned) [Compound 518], the pIC50 was greater than 7.00.
For the compound `COCCO[C@@H]1CCCN(Cc2cc(C(F)(F)F)c3cn(-c4cccc([C@H](c5nncn5C)C5CCC5)c4)c(=O)n3c2)C1` (single isomer, unassigned) [Compound 519], the pIC50 is greater than 7.00.
As for `CO[C@]1(C)C[C@H]([C@H](c2cccc(-n3cc4c(C(F)(F)F)cc(CN5CCC[C@H](C)C5)cn4c3=O)c2)c2nncn2C)C1` (single isomer, unassigned) [Compound 529], the pIC50 is less than 5.00.
`CO[C@]1(C)C[C@H]([C@@H](c2cccc(-n3cc4c(C(F)(F)F)cc(CN5CCC[C@H](C)C5)cn4c3=O)c2)c2nncn2C)C1` (single isomer, unassigned) [Compound 530]: the pIC50 is less than 5.00.
Regarding `Cn1cnnc1[C@H](c1cc(-c2nnnn2C)cc(-n2cc3c(C(F)(F)F)cccn3c2=O)c1)C1CCC1` (single isomer, unassigned) [Compound 531], the pIC50 is 6.00 to 6.52.
In the case of `Cn1cnnc1[C@@H](c1cc(-c2nnnn2C)cc(-n2cc3c(C(F)(F)F)cccn3c2=O)c1)C1CCC1` (single isomer, unassigned) [Compound 532] it was less than 5.00.
Take `Cn1cnnc1[C@@H](c1cc(F)cc(-n2cc3c(C(F)(F)F)cc(CN4CC5(CC5)C4)cn3c2=O)c1)C1CCC1` (single isomer, unassigned) [Compound 533]: the pIC50 was 5.52 to 6.00.
With `Cn1cnnc1[C@@H](c1cc(F)cc(-n2cc3c(C(F)(F)F)cc(CN4CCC(C)(F)CC4)cn3c2=O)c1)C1CCC1` (single isomer, unassigned) [Compound 534], the pIC50 was greater than 7.00.
Take `CNC(=O)Cc1cc([C@@H](c2nncn2C)C2CCC2)cc(-n2cc3c(C(F)(F)F)cccn3c2=O)c1` (single isomer, unassigned) [Compound 537]: the pIC50 is less than 5.00.
In the case of `CNC(=O)Cc1cc([C@H](c2nncn2C)C2CCC2)cc(-n2cc3c(C(F)(F)F)cccn3c2=O)c1` (single isomer, unassigned) [Compound 538], the pIC50 is less than 5.00.
For `Cn1cnnc1[C@H](c1cc(F)cc(-n2cc3c(C(F)(F)F)cc(CN4CC5(CC5)C4)cn3c2=O)c1)C1CCC1` (single isomer, unassigned) [Compound 539], the pIC50 is greater than 7.00.
Under `Cn1cnnc1[C@H](c1cc(F)cc(-n2cc3c(C(F)(F)F)cc(CN4CCC(C)(F)CC4)cn3c2=O)c1)C1CCC1` (single isomer, unassigned) [Compound 540] stands 6.00 to 6.52; under `CO[C@H]1C[C@@H]([C@@H](c2cccc(-n3cc4c(C(F)(F)F)cc(CN5CCC[C@H](C)C5)cn4c3=O)c2)c2nncn2C)C1` (single isomer, unassigned) [Compound 551], 6.00 to 6.52.
In the case of `CO[C@H]1C[C@H]([C@H](c2cccc(-n3cc4c(C(F)(F)F)cc(CN5CCC[C@H](C)C5)cn4c3=O)c2)c2nncn2C)C1` (single isomer, unassigned) [Compound 552], the pIC50 was 6.00 to 6.52.
With `CO[C@H]1C[C@H]([C@@H](c2cccc(-n3cc4c(C(F)(F)F)cc(CN5CCC[C@H](C)C5)cn4c3=O)c2)c2nncn2C)C1` (single isomer, unassigned) [Compound 553], the pIC50 is greater than 7.00.
For the compound `CO[C@H]1C[C@@H]([C@H](c2cccc(-n3cc4c(C(F)(F)F)cc(CN5CCC[C@H](C)C5)cn4c3=O)c2)c2nncn2C)C1` (single isomer, unassigned) [Compound 554], the pIC50 was greater than 7.00.
In the case of `C[C@H]1CCCN(Cc2cc(C(F)(F)F)c3cn(-c4cc(C#N)cc([C@H](c5nncn5C)C5COC5)c4)c(=O)n3c2)C1` (single isomer, unassigned) [Compound 555], the pIC50 was less than 5.00.
As for `C[C@H]1CCCN(Cc2cc(C(F)(F)F)c3cn(-c4cc(C#N)cc([C@@H](c5nncn5C)C5COC5)c4)c(=O)n3c2)C1` (single isomer, unassigned) [Compound 556], the pIC50 was greater than 7.00.
In the case of `Cn1cnnc1[C@@H](c1cc(C#N)cc(-n2cc3c(C(F)(F)F)cc(CN4CC5(CC5)C4)cn3c2=O)c1)C1CCC1` (single isomer, unassigned) [Compound 557], the pIC50 is less than 5.00.
As for `CNC(=O)CCc1cc([C@@H](c2nncn2C)C2CCC2)cc(-n2cc3c(C(F)(F)F)cccn3c2=O)c1` (single isomer, unassigned) [Compound 558], the pIC50 was less than 5.00.
For the compound `CNC(=O)CCc1cc([C@H](c2nncn2C)C2CCC2)cc(-n2cc3c(C(F)(F)F)cccn3c2=O)c1` (single isomer, unassigned) [Compound 559], the pIC50 was less than 5.00.
In the case of `Cn1cnnc1[C@H](c1cc(C#N)cc(-n2cc3c(C(F)(F)F)cc(CN4CC5(CC5)C4)cn3c2=O)c1)C1CCC1` (single isomer, unassigned) [Compound 560] it was greater than 7.00; in that of `Cn1cnnc1[C@@H](c1cccc(-n2cc3c(C(F)(F)F)cc(CN4CCC[C@@](C)(O)C4)cn3c2=O)c1)C1CCC1` (single isomer, unassigned) [Compound 569], greater than 7.00; in that of `C[C@@H]1CN(Cc2cc(C(F)(F)F)c3cn(-c4cccc([C@H](c5nncn5C)C5CCC5)c4)c(=O)n3c2)CC[C@@H]1O` (single isomer, unassigned) [Compound 570], greater than 7.00.
With `C[C@H]1CN(Cc2cc(C(F)(F)F)c3cn(-c4cccc([C@H](c5nncn5C)C5CCC5)c4)c(=O)n3c2)CC[C@H]1O` (single isomer, unassigned) [Compound 571], the pIC50 was greater than 7.00.
In the case of `C[C@H](c1cc(C(F)(F)F)c2cn(-c3cccc([C@H](c4nncn4C)C4CCC4)c3)c(=O)n2c1)N1CC[C@H](C#N)C1` (single isomer, unassigned) [Compound 573_P1], the pIC50 was greater than 7.00.
In the case of `C[C@@H](c1cc(C(F)(F)F)c2cn(-c3cccc([C@H](c4nncn4C)C4CCC4)c3)c(=O)n2c1)N1CC[C@H](C#N)C1` (single isomer, unassigned) [Compound 573_P2] it was greater than 7.00; in that of `C[C@H]1CCCN(Cc2cc(C(F)(F)F)c3cn(-c4cccc([C@H](c5nncn5C)[C@H]5C[C@@](C)(O)C5)c4)c(=O)n3c2)C1` (single isomer, unassigned) [Compound 574], less than 5.00; in that of `C[C@H]1CCCN(Cc2cc(C(F)(F)F)c3cn(-c4cccc([C@H](c5nncn5C)[C@H]5C[C@](C)(O)C5)c4)c(=O)n3c2)C1` (single isomer, unassigned) [Compound 575], less than 5.00.
On to `C[C@H]1CCCN(Cc2cc(C(F)(F)F)c3cn(-c4cccc([C@@H](c5nncn5C)[C@H]5C[C@](C)(O)C5)c4)c(=O)n3c2)C1` (single isomer, unassigned) [Compound 576], for which the pIC50 was less than 5.00.
In the case of `C[C@H]1CCCN(Cc2cc(C(F)(F)F)c3cn(-c4cccc([C@@H](c5nncn5C)[C@H]5C[C@@](C)(O)C5)c4)c(=O)n3c2)C1` (single isomer, unassigned) [Compound 577] it was less than 5.00; in that of `COC1([C@H](c2cccc(-n3cc4c(C(F)(F)F)cc(CN5CCC[C@H](C)C5)cn4c3=O)c2)c2nncn2C)CCC1` (single isomer, unassigned) [Compound 578], 5.52 to 6.00.
For the compound `COC1([C@@H](c2cccc(-n3cc4c(C(F)(F)F)cc(CN5CCC[C@H](C)C5)cn4c3=O)c2)c2nncn2C)CCC1` (single isomer, unassigned) [Compound 579], the pIC50 was 6.00 to 6.52.
`C[C@H](c1cc(C(F)(F)F)c2cn(-c3cccc([C@H](c4nncn4C)C4CCC4)c3)c(=O)n2c1)N1CCC[C@H](C(F)(F)F)C1` (single isomer, unassigned) [Compound 580]: the pIC50 was 5.00 to 5.52.
For `Cc1cnnn1[C@H](c1cccc(-n2cc3c(C(F)(F)F)cc(CN4CCC[C@H](C)C4)cn3c2=O)c1)C1CCC1` (single isomer, unassigned) [Compound 582], the pIC50 was less than 5.00.
In the case of `Cc1cnnn1[C@@H](c1cccc(-n2cc3c(C(F)(F)F)cc(CN4CCC[C@H](C)C4)cn3c2=O)c1)C1CCC1` (single isomer, unassigned) [Compound 583] it was 5.00 to 5.52.
As for `C[C@H]1CCCN(Cc2cc(C(F)(F)F)c3cn(-c4cccc([C@@H](c5nc(CO)cn5C)C5CCC5)c4)c(=O)n3c2)C1` (single isomer, unassigned) [Compound 584], the pIC50 is less than 5.00.
In the case of `C[C@H]1CCCN(Cc2cc(C(F)(F)F)c3cn(-c4cccc([C@H](c5nc(CO)cn5C)C5CCC5)c4)c(=O)n3c2)C1` (single isomer, unassigned) [Compound 585] it was less than 5.00; in that of `C[C@@H]1CN(Cc2cc(C(F)(F)F)c3cn(-c4cccc([C@H](c5nncn5C)C5CCC5)c4)c(=O)n3c2)CC[C@H]1O` (single isomer, unassigned) [Compound 586], greater than 7.00.
